Experimental data taken from patent EP4775574A1, “FURAN RING-CONTAINING COMPOUND, PHARMACEUTICAL COMPOSITION THEREOF, AND USE THEREOF” (Wuhan Xirui Pharmaceutical Technology Co., Ltd, priority 2023, dated 2025).
Read-outs that look alike come from different tables or passages of the source.

What was measured:
[1] = Pharmacokinetic determination in KM mice; type: in vivo
Procedure: Using KM mice as test animals, the pharmacokinetic behavior of the compounds in the examples in mouse plasma after administration by gavage at a dose of 10 mg/kg or by intravenous injection at a dose of 1 mg/kg was studied.
Male SPF-grade KM mice, with body weight (20 ± 2) g.
Drug preparation for the intragastric administration group: The drug concentration was prepared as 1 mg/mL, and the preparation solvent was Tween80 + 0.5% MC (v/v 1:99).
Drug preparation for the intravenous administration group: The drug concentration was prepared as 0.2 mg/mL, and the preparation solvent was 5% DMA + 5% Solutol HS-15 + 90% normal saline.
Intragastric administration group: The administration dose was 10 mg/kg, and the administration volume was 10 mL/kg.
Intravenous administration group: The administration dose was 1 mg/kg, and the administration volume was 5 mL/kg.
Intragastric administration: Blood was collected from mice before administration (0 h) and after administration at 0, 0.25 h, 0.5 h, 1 h, 2 h, 4 h, 6 h, 8 h, 10 h, and 24 h. Intravenous injection: Blood was collected before administration (0 h) and after administration at 5, 15, 30 min, 1, 2, 4, 6, 8, and 24 h.
Blood, approximately 0.1 mL, was collected by retro-orbital puncture and placed into EDTA-K2 anticoagulant tubes with labels. After blood collection, the tubes were gently and completely inverted three times to mix with the anticoagulant. The samples were then immediately placed in an ice-water bath and centrifuged at 4500 rpm for 10 min at 4°C. After centrifugation, the plasma was promptly aliquoted into EP tubes with corresponding labels and stored in a -80°C freezer.
After administration, 20 µL of mouse plasma was taken and placed into a 96-deep-well plate pre-filled with 20 µL of internal standard working solution. Methanol (400 µL) as the precipitating agent was added, vortexed for 10 min, and centrifuged at 4000 rpm for 15 min. A supernatant of 200 µL was transferred into another 96-deep-well plate pre-filled with 200 µL of ultrapure water, vortexed for 5 min, and centrifuged at 4000 rpm for 3 min. A supernatant of 5 µL was taken for LC-MS/MS analysis of plasma drug concentration.
The main pharmacokinetic parameters were calculated by WinNonlin 7.0, and the pharmacokinetic experimental results of mice are shown in Table 5 below. Table 5: Pharmacokinetic experimental results of mice

hNav1.8 = target: T1, hNav1.8 (Homo sapiens, UniProt Q9Y5Y9); experiment: Manual patch-clamp IC50 on hNav1.8 channel current (HEK293 hNav1.8/β3); type: cell-based; settings: HEK293 stably expressing hNav1.8/β3, n = 2, read-out: Inhibitory activity (IC50)
T1 construct: host or cells: HEK293
T1 sequence (Q9Y5Y9 whole entry): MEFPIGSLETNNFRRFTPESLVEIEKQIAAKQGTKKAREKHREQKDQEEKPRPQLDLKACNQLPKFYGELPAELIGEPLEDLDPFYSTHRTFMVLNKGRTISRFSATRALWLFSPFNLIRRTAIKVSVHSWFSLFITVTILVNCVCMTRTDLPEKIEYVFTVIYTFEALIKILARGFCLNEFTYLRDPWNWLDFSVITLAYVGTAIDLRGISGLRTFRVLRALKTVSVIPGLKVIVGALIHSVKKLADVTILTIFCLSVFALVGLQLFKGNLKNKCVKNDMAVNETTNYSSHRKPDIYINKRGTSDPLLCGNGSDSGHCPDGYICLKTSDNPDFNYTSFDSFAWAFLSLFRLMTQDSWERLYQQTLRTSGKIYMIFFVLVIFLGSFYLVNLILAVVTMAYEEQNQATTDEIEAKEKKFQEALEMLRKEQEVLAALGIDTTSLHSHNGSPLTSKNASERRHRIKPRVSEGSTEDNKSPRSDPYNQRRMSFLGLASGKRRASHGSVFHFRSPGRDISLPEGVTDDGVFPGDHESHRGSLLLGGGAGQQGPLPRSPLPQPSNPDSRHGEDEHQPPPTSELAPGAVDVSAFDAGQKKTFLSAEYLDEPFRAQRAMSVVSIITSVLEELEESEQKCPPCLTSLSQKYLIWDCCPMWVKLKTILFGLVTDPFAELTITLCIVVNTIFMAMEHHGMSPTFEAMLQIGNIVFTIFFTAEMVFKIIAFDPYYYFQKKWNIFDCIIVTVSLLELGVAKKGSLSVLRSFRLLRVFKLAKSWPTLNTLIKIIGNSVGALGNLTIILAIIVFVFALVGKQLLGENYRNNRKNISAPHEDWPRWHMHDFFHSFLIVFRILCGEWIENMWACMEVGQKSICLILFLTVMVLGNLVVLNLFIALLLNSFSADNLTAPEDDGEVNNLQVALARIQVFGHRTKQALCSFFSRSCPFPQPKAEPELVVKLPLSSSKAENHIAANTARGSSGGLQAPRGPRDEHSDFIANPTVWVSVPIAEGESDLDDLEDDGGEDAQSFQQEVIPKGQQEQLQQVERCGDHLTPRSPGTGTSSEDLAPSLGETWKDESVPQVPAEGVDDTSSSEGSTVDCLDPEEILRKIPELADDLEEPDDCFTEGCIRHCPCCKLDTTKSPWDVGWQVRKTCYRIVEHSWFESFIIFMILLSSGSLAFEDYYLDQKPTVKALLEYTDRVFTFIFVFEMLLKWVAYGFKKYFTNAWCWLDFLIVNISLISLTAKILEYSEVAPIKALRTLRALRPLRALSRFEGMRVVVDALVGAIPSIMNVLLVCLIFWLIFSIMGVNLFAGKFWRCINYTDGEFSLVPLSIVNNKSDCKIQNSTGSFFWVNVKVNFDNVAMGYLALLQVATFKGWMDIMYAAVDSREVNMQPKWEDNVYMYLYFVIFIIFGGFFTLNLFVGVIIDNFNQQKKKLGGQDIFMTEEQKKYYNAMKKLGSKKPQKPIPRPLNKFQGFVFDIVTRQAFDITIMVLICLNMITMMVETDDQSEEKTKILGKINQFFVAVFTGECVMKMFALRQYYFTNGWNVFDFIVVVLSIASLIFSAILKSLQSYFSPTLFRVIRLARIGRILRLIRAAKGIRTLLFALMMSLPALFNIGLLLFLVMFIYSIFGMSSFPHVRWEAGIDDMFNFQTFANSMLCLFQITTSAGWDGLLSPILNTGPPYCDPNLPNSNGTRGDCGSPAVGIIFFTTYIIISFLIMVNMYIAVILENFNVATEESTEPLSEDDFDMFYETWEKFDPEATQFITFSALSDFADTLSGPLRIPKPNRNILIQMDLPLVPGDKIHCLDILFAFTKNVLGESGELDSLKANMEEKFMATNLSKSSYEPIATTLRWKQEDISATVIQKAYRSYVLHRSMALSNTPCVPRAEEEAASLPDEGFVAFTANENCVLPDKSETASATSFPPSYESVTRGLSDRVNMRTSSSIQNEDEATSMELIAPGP
T1 sequence (Q9NY72 25-215 partner limits assumed): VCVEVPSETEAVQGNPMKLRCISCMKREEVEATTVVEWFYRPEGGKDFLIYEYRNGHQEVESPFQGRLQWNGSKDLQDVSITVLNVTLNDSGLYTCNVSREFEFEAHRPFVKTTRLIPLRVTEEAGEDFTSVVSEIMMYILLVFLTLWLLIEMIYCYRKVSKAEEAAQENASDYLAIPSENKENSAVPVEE
Procedure: This experiment was performed by detecting the influence of 5 concentrations of the compound or a single point or two concentration points on the hNav1.8 channel current, the dose-response curve of the compound was obtained, and the IC50 was calculated. This experiment was conducted to include two parallel sample determinations.
• 1) Cells: The HEK293 cell line that stably expressed the hNav1.8/β3 ion channel was prepared in-house by the Biology Department of Pharmaron (Beijing) Co., Ltd. (The lentiviral vectors that respectively expressed human Nav1.8 and β3 were transduced into HEK293, and it was prepared after screening. Specific reference: Proc Natl Acad Sci U S A. 2022 Jul 26;119(30):e2208211119. doi: 10.1073/pnas.2208211119. and the Cell Lines / BSYS CHO NaV1.8/β3 Cell Line manual.). The cell line was cultured in a medium containing 90% DMEM, 10% fetal bovine serum, 100 U/mL penicillin-streptomycin solution, 0.75 µg/mL puromycin, and 100 µg/mL hygromycin. When the cell density had grown to 40% to 80% of the bottom area of the culture dish, digestion was performed with trypsin, and passage was carried out three times per week. […]

[2] = male, KM, mouse, in vivo, iv, 1 mg/kg
[3] = male, KM, mouse, in vivo, po, 10 mg/kg

Question: With `C[C@H]1[C@@H](c2ccc(F)c(F)c2OC2COC2)[C@H](C(=O)Nc2ccc(F)c(C(=N)NO)c2)O[C@@]1(C)C(F)(F)F` [Example 11] as the compound, how does the “Peak concentration Cmax/C0” value ([1]; KM mice, i.g. 10 mg/kg) read?
Answer: 3413.33 ng/mL

Question: What about the “Peak concentration Cmax/C0” value ([1]; KM mice, i.v. 1 mg/kg) of the same compound?
Answer: 612.43 ng/mL

Question: And the Vd ([1]; mouse, in vivo, iv, KM mice, i.v. 1 mg/kg, read-out: Apparent distribution Vss)?
Answer: 1.4 L/kg

Question: And the AUC(0-t) ([1]; mouse, in vivo, iv, KM mice, i.v. 1 mg/kg, read-out: Area under the curve AUC0-t)?
Answer: 1060 ng·h/mL

Question: And the half-life ([1]; mouse, in vivo, iv, KM mice, i.v. 1 mg/kg, read-out: Half-life t1/2 (converted))?
Answer: 1.44 h

Question: And the bioavailability ([1]; mouse, in vivo, po, KM mice, i.g. 10 mg/kg vs i.v. 1 mg/kg, read-out: Bioavailability)?
Answer: 71.4%

Question: What about the AUC(0-t) ([1]; mouse, in vivo, po, KM mice, i.g. 10 mg/kg, read-out: Area under the curve AUC0-t) of the same compound?
Answer: 7540 ng·h/mL

Question: What about the half-life ([1]; mouse, in vivo, po, KM mice, i.g. 10 mg/kg, read-out: Half-life t1/2 (converted)) of the same compound?
Answer: 1.37 h

Question: What about the Tmax ([1]; mouse, in vivo, po, KM mice, i.g. 10 mg/kg, read-out: Time to peak Tmax) of the same compound?
Answer: 0.25 h

Question: What about the IC50 (hNav1.8) of the same compound?
Answer: 0.229 nM

Question: Which bioavailability ([1]; male, KM, mouse, in vivo) does the source give for `COc1c([C@H]2[C@H](C(=O)Nc3ccnc(C(N)=O)c3)O[C@@](C)(C(F)(F)F)[C@H]2C)ccc(F)c1F` [Reference compound, reference compound] here?
Answer: 44.2%

Question: And the AUC(0-t) [1, 2]?
Answer: 1020 ng·h/mL

Question: What about the “Clearance CL/F” value [1, 2] of the same compound?
Answer: 15.222 mL/min/kg

Question: What about the Cmax [1, 2] of the same compound?
Answer: 621 ng/mL

Question: What about the Vd [1, 2] of the same compound?
Answer: 2.48 L/kg

Question: What about the half-life [1, 2] of the same compound?
Answer: 1.99 h

Question: What about the AUC(0-t) [1, 3] of the same compound?
Answer: 4530 ng·h/mL

Question: And the Cmax [1, 3]?
Answer: 1330 ng/mL

Question: What about the Tmax [1, 3] of the same compound?
Answer: 1 h

Question: What about the half-life [1, 3] of the same compound?
Answer: 1.97 h

Question: And the IC50 (hNav1.8)?
Answer: 0.297 nM
